# According to US11535630B2, “Apelin receptor (APJ) agonists and uses thereof” (Research Triangle Institute, priority 2015, dated 2022):
# Target: T1, apelin receptor (APJ) (Homo sapiens, UniProt P35414)
# T1 sequence (P35414 1-380): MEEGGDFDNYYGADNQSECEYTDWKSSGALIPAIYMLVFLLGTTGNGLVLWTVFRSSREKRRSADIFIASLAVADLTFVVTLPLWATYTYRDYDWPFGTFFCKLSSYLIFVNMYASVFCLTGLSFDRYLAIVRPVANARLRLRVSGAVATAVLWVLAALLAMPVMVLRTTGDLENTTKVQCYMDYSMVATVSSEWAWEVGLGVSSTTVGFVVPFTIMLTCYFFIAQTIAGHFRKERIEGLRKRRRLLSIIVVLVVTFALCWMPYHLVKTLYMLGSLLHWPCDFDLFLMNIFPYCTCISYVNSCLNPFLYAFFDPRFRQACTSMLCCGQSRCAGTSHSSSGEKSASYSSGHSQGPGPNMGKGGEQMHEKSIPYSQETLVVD
# Experiment: In vitro apelin agonist activity (methods of Giddings et al., Apelin-13 as positive control)
# Type: cell-based
# Conditions: in vitro apelin agonist activity, methods of Giddings et al., Apelin-13 as positive control; read-out: EC50 (nM) Ave
# From the text: Characterization of the Apelin Agonist Activity of the Compounds
# 1:39-47, the contents of which are hereby incorporated by reference in its entirety. Using the methods described in Giddings et al. and Apelin-13 as a positive control.
row,SMILES,EC50 [nM]
1,"O=C(C[C@H](CCN1CCC(F)(F)C1)NC(=O)c1cc(-c2ccccc2C(F)(F)F)n(C2CCCC2)n1)NC1CCC1 [compound 480, (3S)-N-cyclobutyl-3-({1-cyclopentyl-5-[2-(trifluoromethyl)phenyl]-1H-pyrazol-3-yl}formamido)-5-(3,3-difluoropyrrolidin-1-yl)pentanamide]",2.76
2,"CN(C(=O)C[C@H](CCN1CCCC(F)(F)C1)NC(=O)c1cc(-c2ccccc2C(F)(F)F)n(C2CCCC2)n1)c1nccs1 [compound 431, (3S)-3-({1-cyclopentyl-5-[2-(trifluoromethyl)phenyl]-1H-pyrazol-3-yl}formamido)-5-(3,3-difluoropiperidin-1-yl)-N-methyl-N-(1,3-thiazol-2-yl)pentanamide]",22.5
3,"O=C(N[C@@H](CC(=O)N1CCCC(F)(F)C1)CS(=O)(=O)NC1CCC1)c1cc(-c2ccccc2C(F)(F)F)n(C2CCCC2)n1 [compound 541, N-[(2S)-1-(cyclobutylsulfamoyl)-4-(3,3-difluoropiperidin-1-yl)-4-oxobutan-2-yl]-1-cyclopentyl-5-[2-(trifluoromethyl)phenyl]-1H-pyrazole-3-carboxamide]",1060
4,"C[C@H](C(=O)O)[C@H](CCN1CCCC(F)(F)C1)NC(=O)c1cc(-c2ccccc2C(F)(F)F)n(C2CCCC2)n1 [compound 596, (2S,3S)-3-({1-cyclopentyl-5-[2-(trifluoromethyl)phenyl]-1H-pyrazol-3-yl}formamido)-5-(3,3-difluoropiperidin-1-yl)-2-methylpentanoic acid]",88
5,"O=C(O)C[C@H](CCN1C(=O)CCCC1=O)NC(=O)c1cc(-c2ccccc2C(F)(F)F)n(C2CCCC2)n1 [compound 604, (3S)-3-({1-cyclopentyl-5-[2-(trifluoromethyl)phenyl]-1H-pyrazol-3-yl}formamido)-5-(2,6-dioxopiperidin-1-yl)pentanoic acid]",55
6,"O=C(C[C@H](CCN1CCCCC1)NC(=O)c1cc(-c2cncnc2)n(C2CCCC2)n1)NC1CCC1 [compound 368, (3S)-N-cyclobutyl-3-{[1-cyclopentyl-5-(pyrimidin-5-yl)-1H-pyrazol-3-yl]formamido}-5-(piperidin-1-yl)pentanamide]",> 10000
7,"CN(C(=O)C[C@H](CCN1CCCC(F)(F)C1)NC(=O)c1cc(-c2ccccc2C(F)(F)F)n(C2CCCC2)n1)c1ncco1 [compound 451, (3S)-3-({1-cyclopentyl-5-[2-(trifluoromethyl)phenyl]-1H-pyrazol-3-yl}formamido)-5-(3,3-difluoropiperidin-1-yl)-N-methyl-N-(1,3-oxazol-2-yl)pentanamide]",27

# Second part, the molecule after the results:
row,EC50 [nM],SMILES
1,299,"CC(C[C@@H](CC(=O)NC1CCC1)NC(=O)c1cc(-c2ccccc2C(F)(F)F)n(C2CCCC2)n1)N1CCC(F)(F)C1 (stereo partly drawn) [compound 573, (3S)-N-cyclobutyl-3-({1-cyclopentyl-5-[2-(trifluoromethyl)phenyl]-1H-pyrazol-3-yl}formamido)-5-(3,3-difluoropyrrolidin-1-yl)hexanamide]"
2,292,"COc1cccc(OC)c1-c1cc(C(=O)N[C@@H](/C=C/c2ccc(F)cc2)CC(=O)NC2CCC2)nn1C1CCCC1 [compound 415, (3R,4E)-N-cyclobutyl-3-{[1-cyclopentyl-5-(2,6-dimethoxyphenyl)-1H-pyrazol-3-yl]formamido}-5-(4-fluorophenyl)pent-4-enamide]"
3,> 10000,"COc1cccc(OC)c1-c1cc(C(=O)N[C@@H](CCN2CCCCC2)CC(N)=O)nn1C1CCCC1 [compound 352, (3S)-3-{[1-cyclopentyl-5-(2,6-dimethoxyphenyl)-1H-pyrazol-3-yl]formamido}-5-(piperidin-1-yl)pentanamide]"
4,> 10000,"COc1cccc(OC)c1-c1cc(C(=O)N[C@@H](CCN2CCN(C)CC2)CC(=O)O)nn1C1CCCC1 [compound 308, (3S)-3-{[1-cyclopentyl-5-(2,6-dimethoxyphenyl)-1H-pyrazol-3-yl]formamido}-5-(4-methylpiperazin-1-yl)pentanoic acid]"
